According to US20180250261A1, “METHOD FOR TREATING CANCER WITH A STAT3 PATHWAY INHIBITOR AND KINASE INHIBITOR” (BOSTON BIOMEDICAL, INC., priority 2015, published 2018):

Columns and labels:
p-STAT3 = target: T1, p-STAT3 (Homo sapiens, UniProt P40763); assay: immunofluorescence staining of SW480 xenograft tissue, p-STAT3; type: in vivo; details: nude mice, oral daily, 14 doses, Compound A 100 mg/kg, Compound B 50 mg/kg, FIG. 6A
T1 construct: from tissue; host or cells: human SW480 colon cancer xenograft tumours grown in female nude mice
T1 sequence (P40763 whole entry): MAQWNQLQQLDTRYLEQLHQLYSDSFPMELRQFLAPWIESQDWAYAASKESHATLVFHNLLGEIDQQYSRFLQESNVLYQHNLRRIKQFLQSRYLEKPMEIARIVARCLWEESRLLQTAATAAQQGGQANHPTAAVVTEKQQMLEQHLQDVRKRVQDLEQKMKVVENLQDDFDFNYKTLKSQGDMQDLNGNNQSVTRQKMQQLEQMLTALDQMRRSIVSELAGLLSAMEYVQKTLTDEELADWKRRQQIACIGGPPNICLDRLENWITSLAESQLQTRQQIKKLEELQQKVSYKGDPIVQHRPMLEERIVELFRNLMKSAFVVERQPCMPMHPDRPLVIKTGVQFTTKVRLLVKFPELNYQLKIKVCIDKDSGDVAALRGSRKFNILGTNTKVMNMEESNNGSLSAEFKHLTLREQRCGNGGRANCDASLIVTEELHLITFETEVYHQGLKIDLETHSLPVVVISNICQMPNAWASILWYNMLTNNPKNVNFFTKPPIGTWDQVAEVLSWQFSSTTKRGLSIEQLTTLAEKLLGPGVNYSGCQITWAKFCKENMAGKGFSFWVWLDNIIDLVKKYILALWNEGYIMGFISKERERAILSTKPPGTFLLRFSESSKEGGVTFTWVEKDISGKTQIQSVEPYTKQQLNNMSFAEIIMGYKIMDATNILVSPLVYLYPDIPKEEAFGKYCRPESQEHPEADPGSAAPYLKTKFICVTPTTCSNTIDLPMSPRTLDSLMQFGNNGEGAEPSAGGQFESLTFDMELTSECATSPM

STAT3 pathway = details: according to U.S. Pat. No. 8,877,803; read-out: STAT3 pathway activity, cellular IC50; cited from earlier work
STK33 = target: T2, STK33 (Homo sapiens, UniProt Q9BYT3); assay: immunofluorescence staining of SW480 xenograft tissue, STK33; type: in vivo; details: nude mice, oral daily, 14 doses, Compound A 100 mg/kg, Compound B 50 mg/kg, FIG. 6B
T2 construct: from tissue; host or cells: human SW480 colon cancer xenograft tumours grown in female nude mice
T2 sequence (Q9BYT3 whole entry): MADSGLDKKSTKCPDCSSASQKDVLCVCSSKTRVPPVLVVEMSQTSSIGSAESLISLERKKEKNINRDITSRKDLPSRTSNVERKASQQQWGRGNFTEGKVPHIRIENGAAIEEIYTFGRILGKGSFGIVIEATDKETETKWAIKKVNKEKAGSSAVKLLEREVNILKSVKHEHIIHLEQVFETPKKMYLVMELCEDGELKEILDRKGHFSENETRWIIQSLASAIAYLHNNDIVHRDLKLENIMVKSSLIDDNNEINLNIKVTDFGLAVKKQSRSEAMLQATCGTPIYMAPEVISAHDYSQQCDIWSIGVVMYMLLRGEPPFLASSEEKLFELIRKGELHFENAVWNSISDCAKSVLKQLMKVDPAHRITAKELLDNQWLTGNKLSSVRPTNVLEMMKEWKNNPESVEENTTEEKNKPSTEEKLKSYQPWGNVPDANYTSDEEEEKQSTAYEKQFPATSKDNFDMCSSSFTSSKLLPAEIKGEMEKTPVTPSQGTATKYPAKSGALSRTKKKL
Protocol: (§1) The effect of a treatment combination of Compound A and Compound B on the levels of various pharmacodynamic (PD) markers for the agents in vivo was studied. A mouse xenograft model of human colon cancer (SW480) was used.
(§2) Levels of STK33 and Nanog were examined using immunofluorescence staining of the xenograft tissue. Female nude mice were inoculated subcutaneously with 8×10^6 human SW480 colon cancer cells. Animals were treated orally daily with vehicle, Compound A (100 mg/kg), Compound B (50 mg/kg), or Compound A and Compound B (100 mg/kg and 50 mg/kg, respectively) for a total of 14 doses. At the end of treatment, the tumors were harvested from euthanized mice. Part of the dissected tumors were fixed overnight in 3.7% neutral buffered formaldehyde at 4° C., and then paraffin embedded, cut to four micron sections, and affixed onto positively charged slides. After being baked and deparaffinized, the slides with tumor or control tissues were incubated in 10mM pH6.0 sodium citrate solution for antigen retrieval at 98° C. […] After being mounted with ProLong mounting medium containing DAPI (Invitrogen), the slides were examined on a Zeiss Axis Imager M2 upright fluorescence microscope with a 20× objective and analyzed with Zen software.

Nanog = assay: immunofluorescence staining of SW480 xenograft tissue, Nanog; type: in vivo, human; details: nude mice, oral daily, 14 doses, Compound A 100 mg/kg, Compound B 50 mg/kg, FIG. 6B
Protocol: as §1, §2

| Structure (SMILES) | cellular levels of p-STAT3 in xenograft tissue (p-STAT3) | IC50 (STAT3 pathway) [nM] | cytoplasmic levels of STK33 in xenograft tissue (STK33) | cytoplasmic levels of Nanog in xenograft tissue (Nanog) | nuclear levels of STK33 in xenograft tissue (STK33) | nuclear levels of Nanog in xenograft tissue (Nanog) |
| --- | --- | --- | --- | --- | --- | --- |
| CC(=O)c1cc2c(o1)C(=O)c1ccccc1C2=O [Compound A, 2-acetylnaphtho[2,3-b]furan-4,9-dione] | significantly reduced | ~250 | reduced | reduced | – | – |
| CCN(CC)CCNC(=O)c1c(C)[nH]c(/C=C2\C(=O)Nc3ccc(-c4csc(-c5ccccc5)n4)cc32)c1C [Compound B] | – | – | – | – | reduced | reduced |
